Reference: the NIST ThermoML archive (doi:10.1016/j.fluid.2008.04.021)

Assay: excess molar enthalpy (molar enthalpy of mixing); xn = mol fraction of the nth substance listed
Settings: Liquid

CCCOCCC [dipropyl ether] + FC(F)(F)C(F)(F)C(F)(F)C(F)(F)C(F)(F)C(F)(F)F
298.15 K
Settings | excess molar enthalpy [kcal/mol]
x2 = 0 | 0
x2 = 0.05 | 0.137
x2 = 0.1 | 0.249
x2 = 0.15 | 0.34
x2 = 0.2 | 0.413
x2 = 0.25 | 0.47
x2 = 0.3 | 0.514
x2 = 0.35 | 0.547
x2 = 0.4 | 0.569
x2 = 0.45 | 0.582
x2 = 0.5 | 0.586
x2 = 0.55 | 0.582
x2 = 0.6 | 0.569
x2 = 0.65 | 0.546
x2 = 0.7 | 0.514
x2 = 0.75 | 0.469
x2 = 0.8 | 0.411
x2 = 0.85 | 0.338
x2 = 0.9 | 0.247
x2 = 0.95 | 0.135

FC(F)(F)C(F)(F)C(F)(F)C(F)(F)C(F)(F)C(F)(F)F [perfluorohexane] + CCCOCCC
Settings | excess molar enthalpy [kcal/mol]
298.15 K, x1 = 1 | 0

CCCCOC [butyl methyl ether] + FC(F)(F)C(F)(F)C(F)(F)C(F)(F)C(F)(F)C(F)(F)F
298.15 K
Settings | excess molar enthalpy [kcal/mol]
x2 = 0 | 0
x2 = 0.05 | 0.148
x2 = 0.1 | 0.26
x2 = 0.15 | 0.344
x2 = 0.2 | 0.406
x2 = 0.25 | 0.452
x2 = 0.3 | 0.486
x2 = 0.35 | 0.51
x2 = 0.4 | 0.526
x2 = 0.45 | 0.535
x2 = 0.5 | 0.539
x2 = 0.55 | 0.535
x2 = 0.6 | 0.524
x2 = 0.65 | 0.505
x2 = 0.7 | 0.475
x2 = 0.75 | 0.434
x2 = 0.8 | 0.379
x2 = 0.85 | 0.31
x2 = 0.9 | 0.224
x2 = 0.95 | 0.121

FC(F)(F)C(F)(F)C(F)(F)C(F)(F)C(F)(F)C(F)(F)F [perfluorohexane] + CCOCC
Settings | excess molar enthalpy [kcal/mol]
293.15 K, x1 = 1 | 0

CCOCC [diethyl ether] + FC(F)(F)C(F)(F)C(F)(F)C(F)(F)C(F)(F)C(F)(F)F
293.15 K
Settings | excess molar enthalpy [kcal/mol]
x2 = 0 | 0
x2 = 0.05 | 0.148
x2 = 0.1 | 0.26
x2 = 0.15 | 0.344
x2 = 0.2 | 0.408
x2 = 0.25 | 0.455
x2 = 0.3 | 0.491
x2 = 0.35 | 0.517
x2 = 0.4 | 0.535
x2 = 0.45 | 0.547
x2 = 0.5 | 0.551
x2 = 0.55 | 0.546
x2 = 0.6 | 0.533
x2 = 0.65 | 0.51
x2 = 0.7 | 0.475
x2 = 0.75 | 0.427
x2 = 0.8 | 0.366
x2 = 0.85 | 0.292
x2 = 0.9 | 0.205
x2 = 0.95 | 0.107

CCCCOCC [butyl ethyl ether] + FC(F)(F)C(F)(F)C(F)(F)C(F)(F)C(F)(F)C(F)(F)F
298.15 K
Settings | excess molar enthalpy [kcal/mol]
x2 = 0 | 0
x2 = 0.05 | 0.146
x2 = 0.1 | 0.259
x2 = 0.15 | 0.345
x2 = 0.2 | 0.41
x2 = 0.25 | 0.459
x2 = 0.3 | 0.494
x2 = 0.35 | 0.519
x2 = 0.4 | 0.536
x2 = 0.45 | 0.546
x2 = 0.5 | 0.549
x2 = 0.55 | 0.546
x2 = 0.6 | 0.535
x2 = 0.65 | 0.517
x2 = 0.7 | 0.489
x2 = 0.75 | 0.449
x2 = 0.8 | 0.396
x2 = 0.85 | 0.327
x2 = 0.9 | 0.24
x2 = 0.95 | 0.132

FC(F)(F)C(F)(F)C(F)(F)C(F)(F)C(F)(F)C(F)(F)F [perfluorohexane] + CCCCOCCCC
298.15 K
Settings | excess molar enthalpy [kcal/mol]
x1 = 0.05 | 0.144
x1 = 0.1 | 0.255
x1 = 0.15 | 0.338
x1 = 0.2 | 0.399
x1 = 0.25 | 0.443
x1 = 0.3 | 0.473
x1 = 0.35 | 0.494
x1 = 0.4 | 0.506
x1 = 0.45 | 0.513
x1 = 0.5 | 0.515
x1 = 0.55 | 0.513
x1 = 0.6 | 0.506
x1 = 0.65 | 0.494
x1 = 0.7 | 0.474
x1 = 0.75 | 0.444
x1 = 0.8 | 0.401
x1 = 0.85 | 0.34
x1 = 0.9 | 0.257
x1 = 0.95 | 0.146
x1 = 1 | 0

FC(F)(F)C(F)(F)C(F)(F)C(F)(F)C(F)(F)C(F)(F)F [perfluorohexane] + CCCCOC
Settings | excess molar enthalpy [kcal/mol]
298.15 K, x1 = 1 | 0

FC(F)(F)C(F)(F)C(F)(F)C(F)(F)C(F)(F)C(F)(F)F [perfluorohexane] + CCCCOCC
Settings | excess molar enthalpy [kcal/mol]
298.15 K, x1 = 1 | 0
